Results as given in patent US11098010B2 (priority 2017, dated 2021).

System: HBV rcDNA in HepDE19 cells
Assay: HepDE19 assay with bDNA quantitation of HBV rcDNA
Type: cell-based, hepatitis B virus (HBV)
Settings: HepDE19 cells, inhibition of rcDNA formation, 7 day incubation, top concentration 25 μM; read-out: DE-19 bDNA EC50

SMILES	EC50 [µM]
O=C(NC1CSc2c(C(=O)Nc3ccc(F)c(Cl)c3)cccc21)OCc1ccccn1 (stereo not shown) [Compound 36, O-Pyridin-2-ylmethyl, N-(7-((3-chloro-4-fluorophenyl)carbamoyl)-2,3-dihydrobenzo[b]thiophen-3-yl) carbamate]	> 25
O=C(N[C@H]1CCc2c(C(=O)Nc3ccc(F)c(Cl)c3)ccc(F)c21)OCCF [Compound 76, O-2-Fluoroethyl, N—(S)-(4-((3-chloro-4-fluorophenyl)carbamoyl)-7-fluoro-2,3-dihydro-1H-inden-1-yl) carbamate]	0.11

Same assay, conditions: Hepatitis B virus, HepDE19, 168 h, HepDE19 cells, inhibition of rcDNA formation, 7 day incubation, top concentration 25 μM; read-out: DE-19 bDNA EC50

SMILES	EC50 [µM]
O=C(N[C@H]1CCc2c(C(=O)Nc3ccc(F)c(Cl)c3)ccc(F)c21)OCCC(F)(F)F [Compound 70, O-3,3,3-Trifluoropropyl, N—(S)-(4-((3-chloro-4-fluorophenyl)carbamoyl)-7-fluoro-2,3-dihydro-1H-inden-1-yl) carbamate]	0.29
N#Cc1cccc(COC(=O)N[C@H]2CCc3c(C(=O)Nc4ccc(F)c(Cl)c4)ccc(F)c32)n1 [Compound 150, O-(6-Cyanopyridin-2-yl)methyl, N—(S)-(4-((3-chloro-4-fluorophenyl)carbamoyl)-7-fluoro-2,3-dihydro-1H-inden-1-yl)carbamate]	0.15
CC(C)(C)N1Cc2c(C(=O)Nc3ccc(F)c(Cl)c3)cccc2S1(=O)=O [Compound 274, 2-(tert-Butyl)-N-(3-chloro-4-fluorophenyl)-2,3-dihydrobenzo[d]isothiazole-4-carboxamide 1,1-dioxide]	4.1
O=C(Nc1ccc(F)c(Cl)c1)c1cccc2c1CCS2(=O)=O [Compound 273, N-(3-Chloro-4-fluorophenyl)-2,3-dihydrobenzo[b]thiophene-4-carboxamide 1,1-dioxide]	0.21
O=C(Nc1ccc(F)c(Cl)c1)c1ccc(F)c2c1CC[C@@H]2NS(=O)(=O)NC1CC1 [Compound 243, (S)-N-(3-chloro-4-fluorophenyl)-1-((N-cyclopropylsulfamoyl)amino)-7-fluoro-2,3-dihydro-1H-indene-4-carboxamide]	0.16

Same assay, conditions: Hepatitis B virus, HepDE19, 168 h, read-out: DE-19 bDNA EC50 (μM), HepDE19 cells, inhibition of rcDNA formation, 7 day incubation, top concentration 25 μM

SMILES	EC50 [µM]
O=C(Nc1ccc(F)c(Cl)c1)c1ccc(F)c2c1CC[C@@H]2Nc1nccc(-c2ccccn2)n1 [Compound 50, (S)—N-(3-Chloro-4-fluorophenyl)-7-fluoro-1-((4-(pyridin-2-yl)pyrimidin-2-yl)amino)-2,3-dihydro-1H-indene-4-carboxamide]	1
COc1ccnc(N[C@H]2CCc3c(C(=O)Nc4ccc(F)c(Cl)c4)ccc(F)c32)n1 [Compound 159, (S)—N-(3-Chloro-4-fluorophenyl)-7-fluoro-1-((4-methoxypyrimidin-2-yl)amino)-2,3-dihydro-1H-indene-4-carboxamide]	0.69
O=C(N[C@H]1CCc2c(C(=O)Nc3ccc(F)c(Cl)c3)ccc(F)c21)OCc1ccn(COP(=O)(O)O)n1 [Compound 254, Sodium (S)-(3-((((4-((3-chloro-4-fluorophenyl)carbamoyl)-7-fluoro-2,3-dihydro-1H-inden-1-yl)carbamoyl)oxy)methyl)-1H-pyrazol-1-yl)methyl phosphate]	0.57
COC(=O)NC1CSc2c(C(=O)Nc3ccc(F)c(Cl)c3)cccc21 (single isomer, unassigned) [Compound 38, O-Methyl, N-(7-((3-chloro-4-fluorophenyl)carbamoyl)-2,3-dihydrobenzo[b]thiophen-3-yl) carbamate]	> 25
Cc1ncsc1CCOC(=O)N[C@H]1CCc2c(C(=O)Nc3ccc(F)c(Cl)c3)ccc(F)c21 [Compound 105, O-2-(4-Methylthiazol-5-yl)ethyl, N—(S)-(4-((3-chloro-4-fluorophenyl)carbamoyl)-7-fluoro-2,3-dihydro-1H-inden-1-yl) carbamate]	0.19

Same assay, conditions: read-out: DE-19 bDNA EC50; HepDE19 cells, inhibition of rcDNA formation, 7 day incubation, top concentration 25 μM

SMILES	EC50 [µM]
COC(=O)NC1COc2c(C(=O)Nc3ccc(F)c(F)c3)cccc21 (stereo not shown) [Compound 4, O-Methyl, N-(7-((3,4-difluorophenyl)carbamoyl)-2,3-dihydrobenzofuran-3-yl) carbamate]	5.3
